Patent publication US5024994A, “Renin inhibitors IV” (Warner-Lambert Company, priority 1988, dated 1991)
Non-standard residues stand in square brackets, D forms with d. Residues, ends and D or L forms follow the SMILES beside them. *: point of attachment. Arg(NO2) = N=C(NCCC[C@H](N)C(=O)O)N[N+](=O)[O-]; Sta = CC(C)C[C@H](N)[C@@H](O)CC(=O)O; Boc = CC(C)(C)OC(=O)*; NHBn = c1ccc(CN*)cc1

molecular target: T1, renin (Homo sapiens, UniProt P00797); test: in vitro renin inhibitory activity, radioimmunoassay for angiotensin I; assay type: biochemical; conditions: not given
T1 sequence (P00797 67-406): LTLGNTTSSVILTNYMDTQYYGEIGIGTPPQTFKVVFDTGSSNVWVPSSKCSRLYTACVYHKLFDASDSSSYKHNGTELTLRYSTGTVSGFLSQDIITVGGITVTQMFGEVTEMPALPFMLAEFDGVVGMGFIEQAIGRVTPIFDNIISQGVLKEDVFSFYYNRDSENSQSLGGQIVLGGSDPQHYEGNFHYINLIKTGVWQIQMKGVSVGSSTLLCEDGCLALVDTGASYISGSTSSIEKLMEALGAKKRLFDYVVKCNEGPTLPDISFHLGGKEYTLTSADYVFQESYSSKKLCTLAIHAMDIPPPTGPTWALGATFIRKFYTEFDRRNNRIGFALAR
Procedure: The effectiveness of the aforementioned compounds is determined by a test for in vitro renin inhibitory activity. This activity is determined by a standard radioimmunoassay for angiotensin I. In this assay the enzyme, renin, incubated for two hours at 37° in the presence of a substrate, angiotensinogen, generates the product, angiotensin I. Test compounds are added to the incubation mixture.

Row | Compound | IC50
1 | CCC(C)CNC(=O)C[C@H](O)[C@H](CC(C)C)NC(=O)C(CC#CCNC(C)=O)NC(=O)C(Cc1cccc2ccccc12)Cc1cccc2ccccc12 (single isomer, unassigned) | 29 nM
2 | CC(C)C[C@H](NC(=O)C[C@H](O)[C@H](CC(C)C)NC(=O)C(CCCC1CO1)NC(=O)C(Cc1cccc2ccccc12)Cc1cccc2ccccc12)C(=O)NCc1ccccc1 (single isomer, unassigned) [drawing 65] | 57 nM
3 | CC[C@H](C)CNC(=O)C[C@H](O)[C@H](CC(C)C)NC(=O)[C@H](CCCCNS(=O)(=O)c1ccc(C)cc1)NC(=O)C(Cc1cccc2ccccc12)Cc1cccc2ccccc12 [Example 41, DNMA-LYS(TOS)-STA-NHCH2 CH(CH3)CH2 CH3] | 3000 nM

same assay, conditions: at 10^-6 molar concentration; read-out: percent inhibition of renin activity

Row | Compound | inhibition at 1 µM
4 | CC(C)C[C@H](NC(=O)C[C@H](O)[C@H](CC(C)C)NC(=O)C(CCCC1CO1)NC(=O)C(Cc1cccc2ccccc12)Cc1cccc2ccccc12)C(=O)NCc1ccccc1 (single isomer, unassigned) [drawing 66] | 47%

same assay, conditions: read-out: IC50

Row | Compound | IC50
5 | CC[C@H](C)CNC(=O)C[C@H](O)[C@H](CC(C)C)NC(=O)[C@H](CCCCNC(=O)C[S+](C)[O-])NC(=O)C(Cc1cccc2ccccc12)Cc1cccc2ccccc12 (stereo partly shown) | 41 nM
6 | CC[C@H](C)CNC(=O)C[C@H](O)[C@@H](NC(=O)[C@H](CCCCNC(=S)NC)NC(=O)C(Cc1cccc2ccccc12)Cc1cccc2ccccc12)C1CCCCC1 | 23 nM
7 | CSC(=NC#N)NCCCC[C@H](NC(=O)C(CC(=O)N1CCOCC1)Cc1cccc2ccccc12)C(=O)N[C@@H](CC(C)C)[C@@H](O)CC(=O)NCCN1CCOCC1 (stereo partly shown) | 350 nM
8 | CC(C)C[C@H](NC(=O)[C@H](CCCCNC(=N)N[N+](=O)[O-])NC(=O)C(CC(=O)N1CCOCC1)Cc1cccc2ccccc12)[C@@H](O)CC(=O)NCCN1CCOCC1 (stereo partly shown) | 420 nM
9 | CNC(=S)NCCCC[C@H](NC(=O)C(CC(=O)N1CCOCC1)Cc1cccc2ccccc12)C(=O)N[C@@H](CC(C)C)[C@@H](O)CC(=O)NCCN1CCOCC1 (stereo partly shown) | 560 nM
10 | CNC(=S)NCCCC[C@H](NC(=O)C(Cc1cccc2ccccc12)Cc1cccc2ccccc12)C(=O)N[C@@H](CC1CCCCC1)[C@@H](O)CC(=O)NCCN1CCOCC1 | 29 nM
11 | CNC(=S)NCCCC[C@H](NC(=O)C(CC(=O)N1CCOCC1)Cc1cccc2ccccc12)C(=O)N[C@@H](CC1CCCCC1)[C@@H](O)CC(=O)NCCN1CCOCC1 (stereo partly shown) | 20 nM
12 | CNC(=S)NCCCC[C@H](NC(=O)C(Cc1cccc2ccccc12)Cc1cccc2ccccc12)C(=O)N[C@@H](CC(C)C)[C@@H](O)CC(=O)NCCN1CCOCC1 | 120 nM
13 | CC(C)C[C@H](NC(=O)[C@H](CCCCNC(=N)N[N+](=O)[O-])NC(=O)C(Cc1cccc2ccccc12)Cc1cccc2ccccc12)[C@@H](O)CC(=O)NCCN1CCOCC1 | 45 nM
14 | CSC(=NC#N)NCCCC[C@H](NC(=O)C(Cc1cccc2ccccc12)Cc1cccc2ccccc12)C(=O)N[C@@H](CC(C)C)[C@@H](O)CC(=O)NCCN1CCOCC1 | 90 nM
15 | CC[C@H](C)CNC(=O)C[C@H](O)[C@H](CC(C)C)NC(=O)[C@H](CCCCNC(=S)NC)NC(=O)C(Cc1ccccc1)Cc1cccc2ccccc12 (stereo partly shown) | 140 nM
16 | CCOC(=O)C(NC(=O)C(Cc1cccc2ccccc12)Cc1cccc2ccccc12)C(=O)N[C@@H](CC(C)C)[C@@H](O)CC(=O)N[C@@H](CC(C)C)C(=O)NCc1ccccn1 (stereo partly shown) | 13 nM
17 | C=CCCCC(NC(=O)C(Cc1cccc2ccccc12)Cc1cccc2ccccc12)C(=O)N[C@@H](CC(C)C)[C@@H](O)CC(=O)N[C@@H](CC(C)C)C(=O)NCc1ccccc1 (single isomer, unassigned; isomer a) [Example 48, DNMA-NHCH(CH2 CH2 CH2 CH=CH2)CO-STA-LEU-NHCH2 Ph (ISOMER A)] | 91 nM
18 | C=CCCCC(NC(=O)C(Cc1cccc2ccccc12)Cc1cccc2ccccc12)C(=O)N[C@@H](CC(C)C)[C@@H](O)CC(=O)N[C@@H](CC(C)C)C(=O)NCc1ccccc1 (single isomer, unassigned; isomer b) [Example 49, DNMA-NHCH(CH2 CH2 CH2 CH=CH2)CO-STA-LEU-NHCH2 Ph (ISOMER B)] | 3500 nM
19 | CC(C)C[C@H](NC(=O)C[C@H](O)[C@H](CC(C)C)NC(=O)[C@H](CCCNC(=N)N[N+](=O)[O-])NC(=O)[C@H](Cc1ccccc1)NC(=O)OC(C)(C)C)C(=O)NCc1ccccc1 [Example 1, BOC-PHE-ARG(NO2)-STA-LEU-NHCH2 Ph] (Boc-F[Arg(NO2)][Sta]L-NHBn) | 63 nM
20 | CC(C)C[C@H](NC(=O)C[C@H](O)[C@H](CC(C)C)NC(=O)[C@H](CCCN1C(=O)c2ccccc2C1=O)NC(=O)[C@H](Cc1ccccc1)NC(=O)OC(C)(C)C)C(=O)NCc1ccccc1 [Example 4, BOC-PHE-ORN(PHT)-STA-LEU-NHCH2 Ph] | 910 nM
21 | CC[C@H](C)CNC(=O)C[C@H](O)[C@H](CC(C)C)NC(=O)[C@H](CCCCNC(=O)OC)NC(=O)C(Cc1cccc2ccccc12)Cc1cccc2ccccc12 [Example 42, DNMA-LYS(CO2 CH3)-STA-NHCH2 CH(CH3)CH2 CH3] | 60 nM

same assay, conditions: renin incubated two hours at 37° with angiotensinogen; molar concentration causing 50% inhibition; read-out: IC50

Row | Compound | IC50
22 | DNMA-LYS(Z)-STA-LEU-NHCH2 Ph | 2900 nM
